Like-named read-outs stand apart in the source and are kept apart here.
Experiments:
[1] = tested on: adult, male Wistar rats; test: Sleep-wakefulness monitoring (SCORE-2000, EEG/EMG) in rats; assay type: in vivo, rat; settings: minutes; for LONGEST UNINTERRUPTED SLEEP BOUT 10 mg/kg / NREM CUMULATION 10 mg/kg: oral bolus at CT-18, 10 mg/kg; for LONGEST UNINTERRUPTED SLEEP BOUT 30 mg/kg / NREM CUMULATION 30 mg/kg: oral bolus at CT-18, 30 mg/kg
Description: Sleep-wakefulness, locomotor activity and body temperature are monitored in male Wistar rats treated with a test compound (i.e., olanzapine analog) initially at a concentration of 10 mg/kg. Higher and lower doses are assayed for select compounds (e.g., as high as 45 mg/kg, and as low as necessary to establish a no-effect dose). Treatments are administered at CT-18, the peak of the activity dominated period (6 hours after lights-off), and produced soporific (sleep-inducing) effects characterized by increased non-REM sleep time, increased sleep continuity, but without evidence of REM sleep inhibition or rebound insomnia.
Sleep-wakefulness, locomotor activity and body temperature were monitored in vivo with various compounds of the invention. Adult, male Wistar rats (250 g at time of surgery, Charles River Laboratories, Wilmington Mass.) were anesthetized (2% isoflourane in medical grade oxygen) and surgically prepared with a cranial implant to permit chronic electro-encephalogram (EEG) and electromyogram (EMG) recording. Body temperature and locomotor activity were monitored via a miniature transmitter (Mini-Mitter, Bend, Oreg.) surgically placed in the abdomen. The cranial implant consisted of stainless steel screws (two frontal (+3.2 AP from bregma, ±2.0 ML) and two occipital (−6.9 AP, ±5.5 ML)) for EEG recording. Two Teflon®-coated stainless steel wires were positioned under the nuchal trapezoid muscles for EMG recording. All leads were soldered to a miniature connector prior to surgery, and gas sterilized in ethylene oxide. The implant assembly was affixed to the skull with dental acrylic. A minimum of three weeks was allowed for surgical recovery.
Each rat was permanently housed in its own individual recording cage located within separate, ventilated compartments of custom-designed stainless steel cabinets. Each cage was enhanced with a filter-top riser and low-torque swivel-commutator. Food and water were available ad libitum. A 24-hr light-dark cycle (12 hours light, 12 hours dark) was maintained throughout the study. Animals were undisturbed for at least 48 hours before and after treatments.
Sleep and wakefulness were determined using “SCORE-2000™” (Hypnion, Worcester, Mass.)—an internet-based sleep-wake and physiological monitoring system. The system monitored amplified EEG (bandpass 1-30 Hz), integrated EMG (bandpass 10-100 Hz), body temperature and non-specific locomotor activity (LMA) via telemetry, and drinking activity, continuously and simultaneously. Arousal states were classified on-line as non-REM (NREM) sleep, REM sleep, wake, or theta-dominated wake every 10 seconds. Total drinking and locomotor activity counts, and body temperature were quantitiated and recorded each minute, using EEG feature extraction and pattern-matching algorithms. […] The classification algorithm used individually-taught EEG-arousal-state templates, plus EMG criteria to differentiate REM sleep from theta-dominated wakefulness, plus behavior-dependent contextual rules (e.g., if the animal was drinking, it is awake). Drinking and locomotor activity intensity (LMA) were recorded every 10 seconds, while body temperature was recorded each minute. Locomotor activity was detected by a telemetry receiver (Mini-Mitter) beneath the cage. Telemetry measures (LMA and body temperature) were not part of the scoring algorithm; thus, sleep-scoring and telemetry data were independent measures.
Compounds were administered at CT-18, the peak of the activity-dominated period, sufficient time was allowed to view the time course of the treatment effect before lights-on (6 hours post-treatment). Compounds were suspended in sterile 0.25% or 0.5% methylcellulose (1-2 ml/kg). Treatments were administered orally as a bolus.
A parallel group study design was employed. […]

[2] = biological target: T1, human recombinant M1 expressed in CHO cells (Homo sapiens, UniProt P11229); settings: reference compounds; read-out: Ki of reference compounds in the M1 binding assay; cited from earlier work
T1 construct: purchased PerkinElmer, Inc., Wellesley, Mass; host or cells: CHO cells
T1 sequence (P11229 1-460): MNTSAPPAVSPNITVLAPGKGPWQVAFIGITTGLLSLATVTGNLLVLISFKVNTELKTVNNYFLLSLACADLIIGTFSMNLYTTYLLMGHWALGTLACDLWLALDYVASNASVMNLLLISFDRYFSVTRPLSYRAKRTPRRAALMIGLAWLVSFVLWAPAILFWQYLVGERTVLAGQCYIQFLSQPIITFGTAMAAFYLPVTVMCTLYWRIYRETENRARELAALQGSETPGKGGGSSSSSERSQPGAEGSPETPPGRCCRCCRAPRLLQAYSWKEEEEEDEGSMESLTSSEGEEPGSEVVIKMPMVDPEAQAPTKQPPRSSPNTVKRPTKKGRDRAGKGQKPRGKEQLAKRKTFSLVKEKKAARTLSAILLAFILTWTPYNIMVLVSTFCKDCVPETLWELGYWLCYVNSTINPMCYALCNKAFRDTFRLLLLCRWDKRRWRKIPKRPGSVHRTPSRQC

[3] = biological target: T2, human recombinant M3 expressed in CHO cells (Homo sapiens, UniProt P20309); test: M3 muscarinic receptor binding assay; settings: Table 7A, third line of column M1 M2 M3
T2 construct: purchased PerkinElmer, Inc., Wellesley, Mass; host or cells: CHO cells
T2 sequence (P20309 whole entry): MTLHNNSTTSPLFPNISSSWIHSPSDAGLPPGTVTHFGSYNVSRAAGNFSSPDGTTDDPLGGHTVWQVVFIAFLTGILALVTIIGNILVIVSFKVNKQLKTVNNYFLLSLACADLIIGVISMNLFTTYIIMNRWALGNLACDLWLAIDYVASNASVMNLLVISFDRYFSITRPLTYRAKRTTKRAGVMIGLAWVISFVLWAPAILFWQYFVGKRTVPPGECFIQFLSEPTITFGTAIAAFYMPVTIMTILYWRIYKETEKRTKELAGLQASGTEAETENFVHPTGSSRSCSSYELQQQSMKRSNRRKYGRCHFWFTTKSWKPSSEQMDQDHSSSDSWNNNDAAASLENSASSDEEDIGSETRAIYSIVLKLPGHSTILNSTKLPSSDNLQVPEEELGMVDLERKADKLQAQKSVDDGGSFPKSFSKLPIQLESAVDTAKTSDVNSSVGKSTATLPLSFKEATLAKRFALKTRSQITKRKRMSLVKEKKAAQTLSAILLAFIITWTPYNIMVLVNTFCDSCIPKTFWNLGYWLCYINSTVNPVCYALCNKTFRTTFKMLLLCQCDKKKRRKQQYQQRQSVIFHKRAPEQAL

[4] = biological target: T3, histamine H1 receptor (bovine) (Bos taurus, UniProt P30546); test: Histamine H1 binding assay, bovine cerebellar membranes, [3H]pyrilamine; settings: Table 7A; Ki in nM
T3 construct: the receptors were obtained from bovine cerebellar membrane tissue; from tissue; host or cells: bovine cerebellar membranes
T3 sequence (P30546 whole entry): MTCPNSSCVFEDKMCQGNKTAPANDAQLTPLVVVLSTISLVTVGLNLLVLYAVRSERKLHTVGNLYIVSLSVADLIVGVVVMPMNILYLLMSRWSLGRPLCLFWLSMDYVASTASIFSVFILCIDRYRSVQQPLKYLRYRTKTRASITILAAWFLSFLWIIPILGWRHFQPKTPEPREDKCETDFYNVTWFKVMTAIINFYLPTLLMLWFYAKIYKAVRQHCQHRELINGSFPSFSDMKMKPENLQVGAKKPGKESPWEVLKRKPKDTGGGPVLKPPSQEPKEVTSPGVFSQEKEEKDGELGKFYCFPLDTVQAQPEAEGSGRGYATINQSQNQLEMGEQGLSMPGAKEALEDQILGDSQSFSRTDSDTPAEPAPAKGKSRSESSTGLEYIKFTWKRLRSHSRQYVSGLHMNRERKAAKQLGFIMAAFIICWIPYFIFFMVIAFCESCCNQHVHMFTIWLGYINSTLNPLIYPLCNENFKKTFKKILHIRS

[5] = biological target: T4, human recombinant M2 expressed in CHO cells (Homo sapiens, UniProt P08172); test: M2 muscarinic receptor binding assay; settings: Table 7A, M1 M2 M3
T4 construct: purchased PerkinElmer, Inc., Wellesley, Mass; host or cells: CHO cells
T4 sequence (P08172 1-466): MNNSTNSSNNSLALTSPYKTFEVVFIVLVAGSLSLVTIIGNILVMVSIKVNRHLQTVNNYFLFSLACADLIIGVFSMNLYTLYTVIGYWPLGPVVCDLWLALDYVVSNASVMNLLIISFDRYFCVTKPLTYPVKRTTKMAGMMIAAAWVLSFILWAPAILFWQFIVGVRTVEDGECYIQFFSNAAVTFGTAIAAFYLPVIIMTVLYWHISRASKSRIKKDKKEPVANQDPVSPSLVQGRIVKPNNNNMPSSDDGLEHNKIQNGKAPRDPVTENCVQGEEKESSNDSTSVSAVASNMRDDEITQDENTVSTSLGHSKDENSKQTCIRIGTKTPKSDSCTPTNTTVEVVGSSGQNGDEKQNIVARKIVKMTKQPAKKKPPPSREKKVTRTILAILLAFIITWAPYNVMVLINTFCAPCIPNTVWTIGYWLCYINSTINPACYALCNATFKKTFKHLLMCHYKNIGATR

[6] = biological target: T1, human recombinant M1 expressed in CHO cells; test: M1 muscarinic receptor binding assay; settings: Table 7A, first line of column M1 M2 M3
[7] = biological target: D2 (h) (Homo sapiens, UniProt P14416); test: Dopamine D2 binding assay; settings: Table 7A; unit inferred
Sequence of D2 (h) (P14416 whole entry): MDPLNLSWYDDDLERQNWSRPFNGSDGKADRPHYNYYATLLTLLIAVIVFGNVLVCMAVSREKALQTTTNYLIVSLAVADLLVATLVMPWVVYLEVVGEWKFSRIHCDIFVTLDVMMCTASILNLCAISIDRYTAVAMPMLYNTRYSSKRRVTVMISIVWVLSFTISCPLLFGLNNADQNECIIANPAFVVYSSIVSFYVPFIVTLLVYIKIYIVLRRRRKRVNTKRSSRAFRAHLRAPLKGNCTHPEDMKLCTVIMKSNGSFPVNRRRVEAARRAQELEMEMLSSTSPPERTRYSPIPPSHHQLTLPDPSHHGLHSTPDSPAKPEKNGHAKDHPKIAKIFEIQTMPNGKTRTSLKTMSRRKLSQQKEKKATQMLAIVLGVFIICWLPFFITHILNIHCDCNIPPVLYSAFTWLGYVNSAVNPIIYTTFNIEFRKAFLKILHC

[8] = biological target: 5HT2a (rat) (Rattus norvegicus, UniProt P14842); test: 5HT2a (rat) binding assay; settings: Table 7A; unit inferred
Sequence of 5HT2a (rat) (P14842 whole entry): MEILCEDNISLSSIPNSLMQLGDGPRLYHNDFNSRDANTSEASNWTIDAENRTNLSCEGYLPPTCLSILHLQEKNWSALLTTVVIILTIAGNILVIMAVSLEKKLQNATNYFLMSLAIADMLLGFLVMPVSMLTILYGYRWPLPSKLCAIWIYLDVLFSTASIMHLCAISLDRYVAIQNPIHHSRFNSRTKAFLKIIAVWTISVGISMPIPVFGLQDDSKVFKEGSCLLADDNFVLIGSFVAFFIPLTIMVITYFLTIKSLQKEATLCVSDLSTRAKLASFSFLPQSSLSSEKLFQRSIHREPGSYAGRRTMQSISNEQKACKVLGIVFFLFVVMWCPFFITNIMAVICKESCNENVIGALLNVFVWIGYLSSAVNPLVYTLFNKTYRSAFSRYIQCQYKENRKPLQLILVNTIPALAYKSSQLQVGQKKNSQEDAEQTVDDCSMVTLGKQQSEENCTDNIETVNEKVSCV

[9] = biological target: T5, 5HT2a (hctx) (Homo sapiens, UniProt P28223); test: 5HT2a (hctx) binding assay; settings: Table 7B; unit inferred
T5 construct: (hctx); from tissue; host or cells: human cortex (my reading of 'hctx')
T5 sequence (P28223 whole entry): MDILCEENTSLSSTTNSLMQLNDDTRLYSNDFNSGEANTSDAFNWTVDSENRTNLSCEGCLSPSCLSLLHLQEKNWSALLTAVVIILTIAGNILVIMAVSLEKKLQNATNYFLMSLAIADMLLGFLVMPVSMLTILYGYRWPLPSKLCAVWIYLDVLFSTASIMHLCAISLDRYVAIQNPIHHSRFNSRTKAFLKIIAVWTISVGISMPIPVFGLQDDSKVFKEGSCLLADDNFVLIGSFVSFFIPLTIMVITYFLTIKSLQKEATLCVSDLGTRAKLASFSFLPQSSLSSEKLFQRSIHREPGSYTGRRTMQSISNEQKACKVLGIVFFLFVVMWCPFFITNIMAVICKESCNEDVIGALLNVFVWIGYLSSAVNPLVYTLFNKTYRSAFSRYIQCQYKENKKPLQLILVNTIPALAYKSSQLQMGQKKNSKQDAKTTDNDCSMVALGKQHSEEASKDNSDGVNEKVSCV

[10] = biological target: D1 (h) (Homo sapiens, UniProt P21728); test: Dopamine D1 (human recombinant) binding assay; settings: Table 7A; unit inferred
Sequence of D1 (h) (P21728 whole entry): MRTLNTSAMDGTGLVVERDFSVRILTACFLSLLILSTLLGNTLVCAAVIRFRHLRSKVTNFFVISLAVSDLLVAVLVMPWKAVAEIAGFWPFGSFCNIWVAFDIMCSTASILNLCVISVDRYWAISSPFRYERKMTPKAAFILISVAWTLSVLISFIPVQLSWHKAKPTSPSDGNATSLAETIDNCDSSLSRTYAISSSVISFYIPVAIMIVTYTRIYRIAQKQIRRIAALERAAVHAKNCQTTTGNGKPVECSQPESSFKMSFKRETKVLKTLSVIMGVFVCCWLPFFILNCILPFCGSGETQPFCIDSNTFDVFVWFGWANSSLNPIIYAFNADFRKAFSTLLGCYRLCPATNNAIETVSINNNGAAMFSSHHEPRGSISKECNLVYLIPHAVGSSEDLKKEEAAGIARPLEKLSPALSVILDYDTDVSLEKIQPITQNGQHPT
Description: Dopamine, D1 (human recombinant) binding assay was performed according to published procedures. See, e.g., Jarvie, et al. J. Recept Res., 13(1-4): 573-90 (1993); and Billard, et al. Life Sciences, 35(18): 1885-93 (1984), with modifications

[11] = biological target: T6, H1 (hr) (Homo sapiens, UniProt P35367); test: H1 (hr) Novascreen binding assay; settings: Table 7A; Ki in nM
T6 construct: Novascreen, MDS, Cerep (assay providers)
T6 sequence (P35367 whole entry): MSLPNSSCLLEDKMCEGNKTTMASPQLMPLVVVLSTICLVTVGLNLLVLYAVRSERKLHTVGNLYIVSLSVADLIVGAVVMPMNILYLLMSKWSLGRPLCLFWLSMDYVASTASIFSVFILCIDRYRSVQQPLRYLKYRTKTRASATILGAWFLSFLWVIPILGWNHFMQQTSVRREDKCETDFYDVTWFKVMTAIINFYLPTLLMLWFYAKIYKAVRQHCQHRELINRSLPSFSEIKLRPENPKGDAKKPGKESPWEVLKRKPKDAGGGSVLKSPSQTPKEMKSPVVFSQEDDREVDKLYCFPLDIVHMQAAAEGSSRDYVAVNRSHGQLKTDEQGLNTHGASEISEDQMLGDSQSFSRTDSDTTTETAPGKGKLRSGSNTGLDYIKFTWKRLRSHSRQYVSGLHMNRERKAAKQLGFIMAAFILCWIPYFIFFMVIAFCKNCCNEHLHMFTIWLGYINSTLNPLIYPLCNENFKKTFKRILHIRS
Description: Binding assays were performed using various sleep-inducing agents and derivatives selected from those listed in Table 1 in competitive binding assays with known standards for the H1 histamine receptor, and the M1, M2, and M3 muscarinic receptors, alpha 1 and alpha 2 receptors, D1 and D2 receptors, 5HT2a, 5HT2b, 5HT2c, 5HT2c, and 5HT7 receptors.
The histamine H1 assays are described in Chang, et al., Heterogeneity of Histamine H1-Receptors: Species Variation in [^3H]Mepyramine Binding of Brain Membranes. Journal of Neurochemistry. 32: 1653-1663 (1979); Martinez-Mir, M. I., Pollard, H., Moreau, J., et al. Three Histamine Receptors (H1, H2, and H3) Visualized in the Brain of Human and Non-Human Primates. Brain Res. 526: 322-327 (1990); Haaksma, E. E. J., Leurs, R. and Timmerman, H. Histamine Receptors: Subclasses and Specific Ligands. Pharmac. Ther. 47: 73-104 (1990). The muscarinic assays are described in Buckley, N. J., Bonner, T. I., Buckley, C. M., and Brann, M. R. Antagonist Binding Properties of Five Cloned Muscarinic Receptors Expressed in CHO-K1 Cells. Mol. Pharmacol. 35: 469-476 (1989). The assays were performed according to the preceding articles, with the following modifications. Chemical reagents in the following were obtained from Sigma, St. Louis, Mo.

[12] = biological target: 5HT2b (h) (Homo sapiens, UniProt P41595); test: 5HT2b (h) binding assay; settings: Table 7B; unit inferred
Sequence of 5HT2b (h) (P41595 whole entry): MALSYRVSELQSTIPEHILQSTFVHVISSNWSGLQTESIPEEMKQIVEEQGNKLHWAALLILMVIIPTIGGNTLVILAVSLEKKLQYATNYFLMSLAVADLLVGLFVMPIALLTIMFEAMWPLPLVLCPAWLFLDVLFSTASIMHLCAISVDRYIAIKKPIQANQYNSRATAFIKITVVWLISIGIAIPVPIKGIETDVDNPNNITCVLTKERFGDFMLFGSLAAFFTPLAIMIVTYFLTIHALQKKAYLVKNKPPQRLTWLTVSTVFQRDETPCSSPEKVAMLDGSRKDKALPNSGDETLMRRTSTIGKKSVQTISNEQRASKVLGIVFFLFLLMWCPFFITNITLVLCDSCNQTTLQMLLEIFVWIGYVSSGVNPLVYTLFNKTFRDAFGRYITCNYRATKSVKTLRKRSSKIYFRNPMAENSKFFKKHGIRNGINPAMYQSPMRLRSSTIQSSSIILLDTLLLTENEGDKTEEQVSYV

Compound | LONGEST UNINTERRUPTED SLEEP BOUT 10 mg/kg [1] [min] | NREM CUMULATION 10 mg/kg [1] [min] | LONGEST UNINTERRUPTED SLEEP BOUT 30 mg/kg [1] [min] | NREM CUMULATION 30 mg/kg [1] [min] | other results
Cc1cc2c(s1)Nc1ccccc1N=C2N1CCN(CCCC(=O)O)CC1 [Compound 93] | -3.0 ± 2.8 | 16 ± 6 | 2.0 ± 1.5 | 10 ± 5 | 
Cc1ccc2c(c1)N=C(N1CCN(CC(C)(C)C(=O)O)CC1)c1cc(C)sc1N2 [Compound 52] | 5.9 ± 2.3 | 25 ± 5 |  |  | 
C[N+]1(C)CCC(OC(=O)C(c2ccccc2)c2ccccc2)CC1 [4-DAMP methiodide] |  |  |  |  | Ki [2]: 0.27 nM
Cc1cc2c(s1)Nc1cc(F)ccc1N=C2N1CCN(CC(C)(C)C(=O)O)CC1 [Compound 101] | 5.9 ± 2.4 | 51 ± 8 |  |  | 
CC(C)(CN1CCN(C2=Nc3ccccc3Nc3sccc32)CC1)C(=O)O [Compound 1] | -7.0 ± 2.4 | 6 ± 6 | 4.1 ± 2.1 | 12 ± 5 | Ki [3]: > 10000 nM; Ki [4]: 2310 nM; Ki [5]: > 10000 nM; Ki [6]: > 10000 nM
Cc1cc2c(s1)Nc1ccccc1N=C2N1CCN(CC(C)(C)C(=O)NS(C)(=O)=O)CC1 [Compound 89] | 5.7 ± 1.8 | 14 ± 7 | 13.6 ± 2.7 | 37 ± 6 | Ki [7]: 927 nM; Ki [3]: > 10000 nM; Ki [4]: 139 nM; Ki [8]: 29.5 nM; Ki [5]: > 10000 nM; Ki [9]: 1000 nM; Ki [6]: > 10000 nM; Ki [10]: 6500 nM
Cc1ccc2c(c1)Nc1sc(C)cc1C(N1CCN(CCC(=O)O)CC1)=N2 [Compound 97] | -3.6 ± 2.6 | 7 ± 3 |  |  | 
Cc1ccc2c(c1)Nc1sc(C)cc1C(N1CCN(CC(C)(C)C(=O)O)CC1)=N2 [Compound 95] | 15.8 ± 5.2 | 43 ± 5 |  |  | Ki [7]: 970 nM; Ki [11]: 200 nM; Ki [12]: 240 nM; Ki [9]: 28 nM
COc1ccc2c(c1)Nc1sc(C)cc1C(N1CCN(CC(C)(C)C(=O)O)CC1)=N2 [Compound 98] | -6.2 ± 2.7 | 12 ± 7 |  |  | 

— US7807828B2, “Olanzapine analogs and methods of use thereof” (Hypnion, Inc., priority 2005, dated 2010)
